Reference: PMC5107130 (Pharmacological Research, 2016)
Several values for one entry are separate records, joined by “and”; a condition that tells them apart may be missing. Equal entries are not always repeated. Where two headings read alike, the source gives them in different places.

Columns and labels:
[1] = Counterscreen: AzMC fluorescence signal generated by the H2S donor GYY4137; details: mean ± SEM, n = 3
[2] = target: T1, Recombinant full length human CBS (Homo sapiens, UniProt P35520); assay: AzMC fluorescence assay of CBS-derived H2S production; type: biochemical; details: for Confirmation (% inhibition of CBS-induced AzMC fluorescence): mean ± SEM, n = 3
T1 sequence (P35520 1-551): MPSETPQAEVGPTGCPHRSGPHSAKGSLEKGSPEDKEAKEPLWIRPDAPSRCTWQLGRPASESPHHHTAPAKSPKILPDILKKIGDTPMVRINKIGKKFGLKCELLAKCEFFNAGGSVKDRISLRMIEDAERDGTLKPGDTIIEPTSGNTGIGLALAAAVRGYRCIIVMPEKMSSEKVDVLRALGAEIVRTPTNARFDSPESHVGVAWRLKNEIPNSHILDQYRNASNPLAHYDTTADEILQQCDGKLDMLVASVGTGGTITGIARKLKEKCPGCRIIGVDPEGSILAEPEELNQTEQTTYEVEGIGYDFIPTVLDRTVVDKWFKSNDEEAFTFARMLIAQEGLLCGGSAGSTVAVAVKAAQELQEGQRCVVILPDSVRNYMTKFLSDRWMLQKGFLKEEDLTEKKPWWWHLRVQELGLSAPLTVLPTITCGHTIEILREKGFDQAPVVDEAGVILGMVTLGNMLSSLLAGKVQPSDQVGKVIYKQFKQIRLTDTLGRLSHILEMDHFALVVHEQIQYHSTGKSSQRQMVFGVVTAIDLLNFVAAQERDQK

[3] = read-out: Confirmation (% inhibition of CBS-induced AzMC fluorescence), 30 μM, mean ± SEM, n = 3
[4] = read-out: Initial screen (% inhibition of CBS-induced AzMC fluorescence), 30 μM

Row | Compound | Initial screen (% inhibition of CBS-induced AzMC fluorescence) ([2]; 30 μM) | Confirmation (% inhibition of CBS-induced AzMC fluorescence) ([2]; 30 μM) | inhibition at 30 µM [2, 3] [%] | inhibition at 30 µM [2, 4] [%] | Confirmation (% inhibition of GYY4137-induced AzMC fluorescence) ([1]; 30 μM) | also measured
1 | O=S(=O)([O-])c1cc(N=C=S)ccc1C=Cc1ccc(N=C=S)cc1S(=O)(=O)[O-].[Na+].[Na+] [DIDS, 4,4′-diisothiocyanostilbene-2,2′-sufonic acid sodium salt] | 69% | 58 ± 4% | – | – | 56 ± 5% | –
2 | CC1=C(C2=C(C)C(=O)c3c(c(C=O)c(O)c(O)c3C(C)C)C2=O)C(=O)c2c(C=O)c(O)c(O)c(C(C)C)c2C1=O [Gossypolone] | – | – | – | – | – | Confirmation (% inhibition of GYY4137-induced AzMC fluorescence) ([1]; 12 μM): 25 ± 4 (12 μM) %; inhibition at 12 µM ([2]; read-out: Confirmation (% inhibition of CBS-induced AzMC fluorescence)): 30 ± 5%; inhibition at 12 µM ([2]; read-out: Initial screen (% inhibition of CBS-induced AzMC fluorescence)): 57%
3 | CC(=O)[O][Hg][c]1ccccc1 [Phenylmercuric acetate] | 69% and 52% | 50 ± 6% and 29 ± 4% | – | – | 59 ± 2% and 32 ± 4% | –
4 | C[C@@](Cc1ccc(O)c(O)c1)(NN)C(=O)O [Carbidopa] | – | – | – | – | – | inhibition at 100 µM ([2]; read-out: % inhibition of recombinant CBS activity, 100 μM, standard assay conditions, freshly dissolved): 6%
5 | COc1cc2cc3c4c(cc(OC)c(OC)c4c2cc1OC)CCN3C [Dehydroglaucine] | – | – | – | – | – | Confirmation (% inhibition of GYY4137-induced AzMC fluorescence) ([1]; 17 μM): 57 ± 8 (17 μM) %; Initial screen (% inhibition of CBS-induced AzMC fluorescence) ([2]; 17 μM): 62% (17 μM); Confirmation (% inhibition of CBS-induced AzMC fluorescence) ([2]; 17 μM): 82 ± 4 (17 μM) %
6 | COC1=C(OC)C(=O)c2ccccc2C1=O [2,3-Dimethoxy-1,4-naphthoquinone] | – | – | 53 ± 1 | 49 | 51 ± 4% | –
7 | O=[N+]([O-])[O-].O=[N+]([O-])[O-].[Cu+2] [Cu(NO2)2, copper(II) nitrate] | – | – | – | – | – | IC50 ([2]; read-out: IC50, inhibition of recombinant CBS (CBS-induced AzMC fluorescence), cell-free, 2 mM L-cysteine and homocysteine): ~200 nM

Now from value to compound, other results behind:

Row | Initial screen (% inhibition of CBS-induced AzMC fluorescence) ([2]; 30 μM) | Confirmation (% inhibition of CBS-induced AzMC fluorescence) ([2]; 30 μM) | inhibition at 30 µM [2, 3] [%] | inhibition at 30 µM [2, 4] [%] | Compound | Confirmation (% inhibition of GYY4137-induced AzMC fluorescence) ([1]; 30 μM) | also measured
8 | – | – | 59 ± 3 | 55 | Cc1cc2nc3c(=O)[nH]c(=O)nc-3n(C)c2cc1C=O [Ro-08-2750, 2,3,4,10-Tetrahydro-7,10-dimethyl-2,4-dioxobenzo[g]pteridine-8-carboxaldehyde] | 69 ± 8% | –
9 | – | – | 48 ± 5 | 58 | O=Nc1ccc(O)c2ncccc12 [NSC 3852, 5-Nitroso-8-quinolinol] | 47 ± 5% | –
10 | 69% | 41 ± 5% | – | – | Verteporfin | 38 ± 5% | –
11 | 70% | 59 ± 8% | 58 ± 8 | 68 | O=C1C(SCCO)=C(SCCO)C(=O)c2ccccc21 [NSC 95397, 2,3bis[(2-Hydroxyethyl)thio]-1,4-naphthoquinone] | 58 ± 1% | –
12 | – | – | 55 ± 4 | 48 | O=C(N/N=C/c1ccc([N+](=O)[O-])o1)c1ccc(O)cc1 [Nifuroxazide] | 50 ± 2% | –
13 | – | – | – | 49 | Cc1cc(/C=C/c2ccc3cc(N(C)C)ccc3[n+]2C)c(C)n1-c1ccccc1 [Pyrvinium pamoate] | 36 ± 3% | –
